The subject of this assay is oxotremorine-induced salivary secretion. As to the kind of experiment: Test on salivary secretion in rat. The format is in vivo. The following applies: urethane-anesthetized male Wistar rat, oxotremorine 0.8 μmol/kg. On the procedure:
A male Wistar rat (160-190 g) was subjected to anesthesia with urethane (0.8 g/kg i.p.), and the test compound was administered (to the control group: solvent). Fifteen minutes later, 0.8 μmol/kg of oxotremorine was administered. In each case, the drug was administered through its femoral artery. The saliva secreted for 5 minutes after the administration of oxotremorine was collected and weighed. The inhibition ratio against the amount of saliva in the control group was determined and the dose of the test compound required for 50% inhibition of the amount of saliva in the control group was designated as ID50.

For the compound `CN1[C@@H]2CC[C@H]1C[C@@H](OC(=O)C(CO)c1ccccc1)C2` (stereo partly shown) [atropine], the “ID50 value (salivary secretion) compared with ED30 value (rhythmic bladder contraction)” value is “substantially the same”.
